Key:
Assay type in all cases: biochemical
Settings in all cases: Table 6; enzyme inhibition data (Ki)
[1] = target: T1, JAK3 (Homo sapiens, UniProt P52333); test: JAK3 inhibition assay (33P incorporation into poly(Glu)4Tyr)
T1 sequence (P52333 1-1124): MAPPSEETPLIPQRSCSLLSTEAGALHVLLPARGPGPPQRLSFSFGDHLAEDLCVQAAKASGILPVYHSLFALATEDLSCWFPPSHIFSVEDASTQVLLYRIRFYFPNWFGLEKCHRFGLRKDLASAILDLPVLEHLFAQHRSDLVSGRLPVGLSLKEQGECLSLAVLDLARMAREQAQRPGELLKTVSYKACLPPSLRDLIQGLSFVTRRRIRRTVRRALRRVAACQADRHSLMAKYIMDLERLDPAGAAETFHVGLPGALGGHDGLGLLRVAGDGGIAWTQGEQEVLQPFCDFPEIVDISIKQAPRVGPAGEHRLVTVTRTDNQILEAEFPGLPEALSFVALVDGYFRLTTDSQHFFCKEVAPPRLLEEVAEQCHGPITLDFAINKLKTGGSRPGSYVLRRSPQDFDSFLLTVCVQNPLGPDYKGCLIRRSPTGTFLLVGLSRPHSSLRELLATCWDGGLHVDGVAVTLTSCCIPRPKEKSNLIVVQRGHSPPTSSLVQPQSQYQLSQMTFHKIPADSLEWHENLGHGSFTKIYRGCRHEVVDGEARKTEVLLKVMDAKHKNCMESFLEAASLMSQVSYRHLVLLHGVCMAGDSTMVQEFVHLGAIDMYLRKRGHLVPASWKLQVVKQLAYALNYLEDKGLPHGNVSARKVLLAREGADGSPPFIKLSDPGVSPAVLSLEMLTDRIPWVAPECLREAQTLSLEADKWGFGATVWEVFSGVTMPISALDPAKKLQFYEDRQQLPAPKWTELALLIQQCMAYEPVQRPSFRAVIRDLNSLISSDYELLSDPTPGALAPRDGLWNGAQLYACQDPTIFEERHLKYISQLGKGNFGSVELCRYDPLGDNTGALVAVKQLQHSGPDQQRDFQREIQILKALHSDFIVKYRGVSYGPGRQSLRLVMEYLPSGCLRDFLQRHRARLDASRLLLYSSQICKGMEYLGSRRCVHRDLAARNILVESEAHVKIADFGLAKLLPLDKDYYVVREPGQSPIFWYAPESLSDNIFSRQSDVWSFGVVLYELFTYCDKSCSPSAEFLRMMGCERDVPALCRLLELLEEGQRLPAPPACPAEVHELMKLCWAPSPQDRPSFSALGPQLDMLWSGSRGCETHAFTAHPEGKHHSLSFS
Summary of the method: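 Human JAK3 at 1 nM phosphorylated 1 μM poly(Glu)4Tyr using 5 μM [33P]ATP in HEPES pH 7.4 buffer with MgCl2, DTT and BSA. Reactions ran 20 min at 25° C. and were stopped with TCA. 33P incorporation was measured by scintillation after glass-fiber filter capture.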

[2] = target: JAK2 (Homo sapiens, UniProt O60674); test: JAK2 inhibition assay (as Example 3 with JAK-2 enzyme)
JAK2, sequence (O60674 whole entry): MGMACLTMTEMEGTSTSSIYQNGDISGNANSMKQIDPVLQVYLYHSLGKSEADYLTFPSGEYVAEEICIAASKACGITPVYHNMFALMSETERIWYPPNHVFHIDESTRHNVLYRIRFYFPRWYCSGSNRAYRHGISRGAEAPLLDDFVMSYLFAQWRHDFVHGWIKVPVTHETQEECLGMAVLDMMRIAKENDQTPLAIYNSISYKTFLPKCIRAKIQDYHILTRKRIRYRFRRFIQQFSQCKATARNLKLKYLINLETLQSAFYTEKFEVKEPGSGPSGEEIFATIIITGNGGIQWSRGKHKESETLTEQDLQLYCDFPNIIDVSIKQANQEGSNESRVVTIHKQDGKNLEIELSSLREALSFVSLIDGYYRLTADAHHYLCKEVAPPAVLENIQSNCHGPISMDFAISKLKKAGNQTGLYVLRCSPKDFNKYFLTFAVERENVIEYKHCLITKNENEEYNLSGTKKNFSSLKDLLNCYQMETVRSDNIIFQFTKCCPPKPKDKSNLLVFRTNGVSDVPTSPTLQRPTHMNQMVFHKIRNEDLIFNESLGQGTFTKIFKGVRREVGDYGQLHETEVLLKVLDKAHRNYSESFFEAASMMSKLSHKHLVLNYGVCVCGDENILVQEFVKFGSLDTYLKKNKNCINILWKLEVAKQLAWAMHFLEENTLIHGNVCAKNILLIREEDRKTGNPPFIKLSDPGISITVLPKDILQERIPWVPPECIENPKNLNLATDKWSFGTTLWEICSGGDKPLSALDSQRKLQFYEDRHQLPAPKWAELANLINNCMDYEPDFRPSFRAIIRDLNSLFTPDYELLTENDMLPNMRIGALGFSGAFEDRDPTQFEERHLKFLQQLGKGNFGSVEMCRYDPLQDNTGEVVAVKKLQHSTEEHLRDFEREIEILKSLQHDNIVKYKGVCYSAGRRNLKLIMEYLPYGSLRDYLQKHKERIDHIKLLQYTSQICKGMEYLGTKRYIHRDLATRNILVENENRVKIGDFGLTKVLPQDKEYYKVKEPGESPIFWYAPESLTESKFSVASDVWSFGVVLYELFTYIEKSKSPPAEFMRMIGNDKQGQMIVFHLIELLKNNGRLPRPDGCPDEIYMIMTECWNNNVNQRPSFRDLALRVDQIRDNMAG
Summary of the method: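 Radiometric JAK2 kinase assay: poly(Glu)4Tyr substrate at final 15 μM, ATP at final 12 μM with [33P]; buffer 100 mM HEPES pH 7.4, 1 mM DTT, 10 mM MgCl2, 25 mM NaCl, 0.01% BSA. 20 min at 25 °C, TCA-stopped, 33P incorporation counted after filter capture.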

[3] = target: ROCK I (Homo sapiens, UniProt Q13464); test: ROCK-I inhibition assay (radioactive enzyme assay, MBP substrate)
ROCK I, sequence (Q13464 whole entry): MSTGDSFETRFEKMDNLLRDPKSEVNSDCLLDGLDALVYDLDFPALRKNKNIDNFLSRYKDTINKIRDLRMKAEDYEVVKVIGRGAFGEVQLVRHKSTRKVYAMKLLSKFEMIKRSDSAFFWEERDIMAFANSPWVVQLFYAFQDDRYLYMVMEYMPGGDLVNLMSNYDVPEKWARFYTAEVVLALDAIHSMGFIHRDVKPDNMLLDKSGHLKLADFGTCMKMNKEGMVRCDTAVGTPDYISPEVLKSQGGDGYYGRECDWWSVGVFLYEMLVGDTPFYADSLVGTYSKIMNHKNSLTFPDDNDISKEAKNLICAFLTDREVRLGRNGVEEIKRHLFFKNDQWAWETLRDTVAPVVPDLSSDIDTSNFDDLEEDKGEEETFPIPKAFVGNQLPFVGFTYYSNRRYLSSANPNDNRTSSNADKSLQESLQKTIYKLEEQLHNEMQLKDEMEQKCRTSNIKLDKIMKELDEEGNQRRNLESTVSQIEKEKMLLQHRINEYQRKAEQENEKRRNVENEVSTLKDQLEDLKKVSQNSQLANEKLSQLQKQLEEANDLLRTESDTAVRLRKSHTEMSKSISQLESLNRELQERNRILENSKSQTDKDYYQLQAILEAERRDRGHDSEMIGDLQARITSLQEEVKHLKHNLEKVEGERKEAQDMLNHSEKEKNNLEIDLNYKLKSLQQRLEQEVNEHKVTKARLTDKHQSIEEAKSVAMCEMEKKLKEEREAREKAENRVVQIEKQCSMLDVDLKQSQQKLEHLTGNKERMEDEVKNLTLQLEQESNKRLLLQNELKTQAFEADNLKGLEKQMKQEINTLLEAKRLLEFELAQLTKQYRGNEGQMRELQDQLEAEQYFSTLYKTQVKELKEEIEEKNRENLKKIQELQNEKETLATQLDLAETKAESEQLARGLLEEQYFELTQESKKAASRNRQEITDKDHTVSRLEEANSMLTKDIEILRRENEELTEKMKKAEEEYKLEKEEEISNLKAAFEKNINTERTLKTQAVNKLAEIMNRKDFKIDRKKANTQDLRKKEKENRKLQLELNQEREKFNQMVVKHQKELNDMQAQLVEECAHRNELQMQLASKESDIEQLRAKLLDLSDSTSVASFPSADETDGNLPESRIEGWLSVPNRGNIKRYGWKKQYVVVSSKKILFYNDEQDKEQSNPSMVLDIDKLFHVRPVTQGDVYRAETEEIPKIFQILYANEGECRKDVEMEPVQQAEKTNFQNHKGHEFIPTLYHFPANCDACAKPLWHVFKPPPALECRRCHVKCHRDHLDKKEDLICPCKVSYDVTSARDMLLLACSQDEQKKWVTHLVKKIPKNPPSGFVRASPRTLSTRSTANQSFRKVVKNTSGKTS
Summary of the method: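 Human ROCK at 5 nM phosphorylated 27 μM myelin basic protein with 13 μM [γ-33P]ATP (final) in HEPES pH 7.5, MgCl2, NaCl, DTT and 1.5% DMSO. Reactions ran 2 h at room temperature before TCA quench and filter-plate scintillation counting. After background subtraction, data were fit to give Ki(app).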

SMILES	Ki [1] [nM]	Ki [2] [nM]	Ki [3] [nM]
C[C@@H]1CC[C@H](C)N1C(=O)c1csc(-c2ccnc3[nH]ccc23)n1 [compound 417]	< 500	< 500	< 500
O=C(c1csc(-c2ccnc3[nH]ccc23)n1)N1CCCC1 [compound 418]	500 to 5000	< 500	< 500
CC1CCCN1C(=O)c1csc(-c2ccnc3[nH]ccc23)n1 (stereo not drawn) [compound 419]	< 500	< 500	< 500
CC1CCCCN1C(=O)c1csc(-c2ccnc3[nH]ccc23)n1 (stereo not drawn) [compound 420]	< 500	< 500	< 500
C[C@@H]1CCC[C@H](C)N1C(=O)c1csc(-c2ccnc3[nH]ccc23)n1 [compound 421]	< 500	< 500	< 500
CCOC(=O)[C@@H]1[C@@H](C)CCN1C(=O)c1csc(-c2ccnc3[nH]ccc23)n1 [compound 422]	500 to 5000	500 to 5000	500 to 5000
CCC1CCCCN1C(=O)c1csc(-c2ccnc3[nH]ccc23)n1 (stereo not drawn) [compound 423]	< 500	< 500	< 500
O=C(Cn1ccc2cnc(-c3ccnc4[nH]ccc34)nc21)NCC(F)(F)F [compound 424]	< 500	< 500	> 4000
CC(C)[C@H](C(=O)NCC(F)(F)F)n1ccc2cnc(-c3ccnc4[nH]ccc34)nc21 [compound 425]	< 500	< 500	> 4000
